Source: patent US20110269790A1, “NOVEL THIENOPYRIDINES AS PHARMACOLOGICALLY ACTIVE AGENTS” (priority 2009, published 2011)

Experiments:
[1] = test system: Wistar rats; assay: Antidiabetic activity by starch loaded model; type: in vivo, rat; conditions: test compounds 100 mg/kg, Acarbose 10 mg/kg oral
From the text: Experimental Animals—Wistar rats of either sex were used for the present study. Animals selected for use in the study were of uniform age and body weight. A minimum of 40 rats, from which eventually 20 rats were selected. Their body weights were in the range of 150-180 gm. The health status of the animals was ascertained by a veterinary surgeon. […] Animals were acclimatized for at least two weeks prior to start of the study. The animals were provided with pellet diet manufactured by NIN, HYDERABAD, India and drinking water adlibitum.
Compound Preparation The required quantity of the synthetic compounds were weighed and made suspension with gum acacia (2%). The test compounds were administered to all rats by per oral route. Acarbose suspension was also prepared in gum acasia suspension and given by oral route.
Antidiabetic activity by Starch model: The method of Rao et al., 2009;Tiwari et al was employed. Animals were fasted over night (12 hrs). Basal blood glucose levels were estimated for all the animals prior to dosing in test and standard groups. This was designated as “0” min reading. […] After test compounds administration animals in all three groups received Starch aqueous solution (2 gm/kg body weight). Blood glucose levels were monitored at 30, 60, 90 and 120 min after the administration of Starch in all the three groups. The percentage of increase in, blood glucose levels was calculated with respect to the control group at each time point.

[2] = target: T1, porcine pancreatic α-amylase (Sus scrofa, UniProt P00690); assay: α-Amylase inhibition assay; type: biochemical; conditions: 10 mg per ml; a/b marks the respective control (Control-1 2.147, Control-2 3.429)
T1 construct: α-amylase [EC 3.2.1.1) Type VI B: from porcine pancreas]; purchased Sigma Chemical Co., St Louis, Mo., USA; host or cells: porcine pancreas (natural source)
T1 sequence (P00690 16-511): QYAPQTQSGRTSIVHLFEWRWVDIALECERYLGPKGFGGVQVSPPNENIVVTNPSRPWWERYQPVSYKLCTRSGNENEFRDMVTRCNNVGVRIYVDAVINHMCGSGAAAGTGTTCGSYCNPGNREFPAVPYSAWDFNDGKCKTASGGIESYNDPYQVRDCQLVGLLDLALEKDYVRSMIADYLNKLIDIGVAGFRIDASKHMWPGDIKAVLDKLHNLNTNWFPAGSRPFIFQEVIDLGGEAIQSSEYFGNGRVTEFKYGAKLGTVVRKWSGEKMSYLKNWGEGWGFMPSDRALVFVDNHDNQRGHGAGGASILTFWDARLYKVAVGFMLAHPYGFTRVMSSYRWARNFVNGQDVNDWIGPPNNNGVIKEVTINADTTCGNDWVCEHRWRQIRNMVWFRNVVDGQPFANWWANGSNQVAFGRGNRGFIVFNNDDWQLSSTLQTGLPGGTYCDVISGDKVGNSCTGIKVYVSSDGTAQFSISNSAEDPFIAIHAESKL
From the text: (§1) Chemicals: α-Glucosidase [(EC 3.2.1.20) Type I: from bakers yeast], rat intestinal acetone powder (as a source of crude intestinal α-glucosidase), α-amylase [EC 3.2.1.1) Type VI B: from porcine pancreas], p-nitrophenyl α-D-glucopyranoside, 3,5-dinitro salicylic acid, soluble potato starch and 1-deoxyrojirimycine, were purchased from Sigma Chemical Co., St Louis, Mo., USA. Other chemicals of analytical grade were procured from indigenous manufacturers.
a-Amylase Inhibition Assay: The assay method was adopted from Ali et al. (2006) and modified accordingly to suite microplate reading. In brief, 40 μL of test samples (10 mg/mL DMSO) were reconstituted in 160 μL of 20 mM phosphate buffer (pH 6.9) containing 6.7 mM sodium chloride in 2 mL Eppendorf tubes and incubated with 200 μL of porcine pancreatic α-amylase) (4 U/mL prepared in ice cold distilled water) for 5 min. The reaction was started by the addition of 400-μL soluble potato starch solution (0.5% w/v in 20 mM phosphate buffer, pH 6.9). Exactly 3 min after incubation, 400 μL DNS color reagent (1.0 g of 3,5-dinitrosalicylic acid, 30 g of sodium potassium tartrate and 20 mL of 2 N NaOH to a final volume of 100 mL in distilled water) was added. Closed tubes were placed in a water bath (85-90° C.) for 10 min to develop color and cooled thereafter. 50 μL of reaction mixtures was diluted with 175 μL of distilled water in a 96-well microplate. α-Amylase activity was determined by measuring the absorbance of the mixture at 540 nm spectrophotometrically as above. Individual blanks were prepared to correct for the background absorbance due to test samples. In this case DNS solution was added in tubes before addition of substrate. The percentage inhibition of enzyme activity was calculated as above. All the tests were run in duplicate in this assay.

[3] = test system: mice; assay: Adenosine mediated bronchoconstriction and lung inflammation in an allergic mouse model; type: in vivo; set-up: Total count: unit not given here; conditions: BAL fluid cells; 100 mg/kg oral
Protocol: Thienopyridines were proven as potent cytotoxic and anti-inflammatory agents in the previous experimental results. In cytotoxic MTT assay, activity of these molecules may be due to the involvement of adenosine receptors. Further, to find the bronchodilatory activity of these moieties and to find the involvement of adenosine receptors in their action, non-invasive and invasive adenosine mediated bronchoconstriction and lung inflammation in an allergic mouse model was performed.
Male mice, 6-8 weeks of age, free of specific pathogens were obtained from National Institute of Nutrition. The animals were maintained on a ragweed-free diet. All experimental protocols used in this study were under a protocol approved by animal ethical committee. Sensitization was performed according to the modified procedure described by Fan et al, 2002. Mice were sensitized on days 1 and 6 with i.p. injections of ragweed allergen (200 μg/200 μl of water for injection). Non-sensitized control animals received only water for injection with the same volumes. Ten days after sensitization, the mice were placed in plexiglas chamber and challenged with 0.5% ragweed or with 0.9% saline as a control for twenty minutes both in the morning and evening for three days. Then mice were divided into different groups consisting of six animals each. The groups including a control without sensitization; a sensitized group and a standard group along with groups of the test molecules were separated. Twenty-four hours after last challenge with ragweed, the mice were given an oral dose of test molecules and theophylline (100 mg/kg body weight) as acacia suspension. Two hours after administration of the oral dose, the mice were challenged with adenosine solution (24 mg/ml). The variation in respiration was recorded after anaesthetizing them with pentobarbitone sodium (0.1 ml 200 mg/ml ip) using kymograph. Then, mice were sacrificed and trachea was cannulated to collect the bronchoalveolar lavage fluid. This was performed by pumping 1 ml phosphate buffered saline into lungs through tracheal cannula and collecting the sample. Analysis of BAL fluid was performed to get the cellular differentials. The BAL fluid was centrifugated at 1500 rpm for six minutes at room temparature. After removing the supernatant, BAL cells were resuspended in 1 ml of phosphate buffered saline. Total cells were then counted manually in a hemocytometer chamber. A differential count of at least 300 cells was made according to the standard morphologic criteria and results were mentioned in table.

[4] = test system: Wistar rats; assay: Carrageenan induced paw edema model; type: in vivo, rat; conditions: Rattus norvegicus, po, 3 h
Protocol: Male Albino Wistar rats of 150-180 grams were used for the experiments.
Anti-inflammatory activity of test compounds was evaluated in Wistar rats employing the method of Winter et al (1963) and Diwan et al (1989). Male Wistar rats were used for the study. […] The different test compounds were administered to the animals in the test group at the dose of 100 mg/kg, by oral route. Animals in the standard group received Indomethacin at the dose of 10 mg/kg, by oral route. All test and standard compounds were administered as 1% gum acacia suspension. Rats in the control group received the vehicle solution without drugs. One hour after test drugs administration, rats in all the groups were challenged with 0.1 ml of 1% Carrageenan in the sub plantar region of right hind paw. A zero hour paw volume was measured for all the rats using digital plethysmometer (Ugo Basile, Italy) before the administration of carrageenan for all groups. Paw volumes were again measured 3 hrs after the challenge of Carrageenan. The percent inhibition of paw volume for each rat in treated groups was calculated by comparing with mean paw volume of control group and expressed as mean (±SE) percent inhibition of paw volume for each test. In a preliminary study the compounds that have shown good activity were evaluated for dose response study by using above procedure.

[5] = test system: crude intestinal α-glucosidase; assay: In-vitro mammalian (rat intestinal) α-glucosidase inhibition assay; type: biochemical; conditions: highest concentration 5 mg/ml
From the text: as §1
(§2) In-vitro a-Glucosidase Inhibition Assay: Yeast and intestinal a-glucosidase inhibitory activities were determined as per reported methods (Babu et al., 2004; Mc Dougall et al., 2005). Rat intestinal acetone powder in normal saline (100% w/v) was sonicated properly and the supernatant was used as a source of crude intestinal a-glucosidase after centrifugation. In brief, 20 μl, of test samples (100 mg/ml DMSO solution) were reconstituted in 100 μl of 100 mM-Phosphate buffer (pH 6.8) in a 96-well microplate and incubated with 50 μl yeast a-glucosidase (0.76 μ/ml in same buffer) or crude intestinal a-glucosidase for 5 min before 50-μl substrate (5 mM, […] prepared in same buffer) was added. Release of p-nitrophenyol was measured at 405 nm spectrophotometrically (Spectra Mas Plus 384, Molecular Device corporation, Sunnyvale, Calif., USA) 5 min after incubation with substrate, individual blank for test samples were prepared to correct background absorbance where the substrate was replaced with 50 μl of buffer. The control sample contained 20 μl DMSO in place of test samples. The percentage of enzyme inhibition was calculated as (A−B/A)×100 where A is represents the absorbance of the control without test samples, and B represents the absorbance in the presence of test samples. […] The IC50 values were calculated by applying logarithmic regression analysis from the mean inhibitory values.

[6] = target: T2, yeast α-glucosidase (Saccharomyces cerevisiae, UniProt P53341); assay: In-vitro yeast α-glucosidase inhibition assay; type: biochemical, bakers yeast
T2 construct: α-Glucosidase [(EC 3.2.1.20) Type I: from bakers yeast]
T2 sequence (P53341 whole entry): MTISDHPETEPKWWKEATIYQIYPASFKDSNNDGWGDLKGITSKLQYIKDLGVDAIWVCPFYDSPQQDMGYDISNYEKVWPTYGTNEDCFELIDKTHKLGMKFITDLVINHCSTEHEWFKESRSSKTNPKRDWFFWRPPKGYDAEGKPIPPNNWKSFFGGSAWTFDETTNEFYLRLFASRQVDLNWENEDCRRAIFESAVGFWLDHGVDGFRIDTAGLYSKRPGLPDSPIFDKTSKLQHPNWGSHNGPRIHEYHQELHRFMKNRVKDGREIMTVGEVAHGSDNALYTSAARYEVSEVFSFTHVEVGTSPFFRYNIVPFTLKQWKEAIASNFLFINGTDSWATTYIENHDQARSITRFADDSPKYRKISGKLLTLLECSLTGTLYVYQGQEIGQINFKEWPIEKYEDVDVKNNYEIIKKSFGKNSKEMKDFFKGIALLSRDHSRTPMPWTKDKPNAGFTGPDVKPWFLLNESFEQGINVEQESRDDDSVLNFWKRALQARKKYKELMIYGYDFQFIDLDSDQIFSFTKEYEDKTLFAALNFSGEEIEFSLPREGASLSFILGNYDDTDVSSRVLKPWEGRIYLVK
From the text: as §1, §2

Row | SMILES | % Increase in glucose, 30 min ([1]; 30 min after starch) | Blood glucose level, 30 min ([1]; 30 min after starch, in mg/dL (unit assumed)) | % Increase in glucose, 60 min ([1]; 60 min after starch) | Blood glucose level, 60 min ([1]; 60 min after starch, in mg/dL (unit assumed)) | % Increase in glucose, 90 min ([1]; 90 min after starch) | Blood glucose level, 90 min ([1]; 90 min after starch, in mg/dL (unit assumed)) | % Increase in glucose, 120 min ([1]; 120 min after starch) | Blood glucose level, 120 min ([1]; 120 min after starch, in mg/dL (unit assumed)) | Blood glucose level, 0 min ([1]; basal, prior to dosing, starch 2 gm/kg, in mg/dL (unit assumed)) | Maltose released [2] | Differential count (%) Eosinophils [3] | Differential count (%) Lymphocytes [3] | Differential count (%) Monocytes [3] | Total count [3] | change in vivo at 100 mg/kg ([4]; read-out: % Increase in Paw Volume) | inhibition in vivo at 100 mg/kg ([4]; read-out: % Inhibition (paw volume)) | Mammalian α Glucosidase Inhibition (Mean ± S.E) [5] | Yeast α-glucosidase enzyme inhibitory activity (in words) [6]
1 | C[C@H]1O[C@H](O[C@H]2[C@H](O)[C@@H](O)[C@@H](O[C@H]3[C@H](O)[C@@H](O)C(O)O[C@@H]3CO)O[C@@H]2CO)[C@H](O)[C@@H](O)[C@@H]1N[C@H]1C=C(CO)[C@@H](O)[C@H](O)[C@H]1O (stereo partly drawn) [Acarbose, reference compound] | 23.55% | 103.17 | 32.03% | 110.17 | 31.78% | 109.83 | 30.27% | 108.62 | 83.50 |  |  |  |  |  |  |  |  | 
2 | Nc1c2c(nc3sc4c(c13)CCCCC4)CCCC2 [BN-19, 2,3,4,7,8,9,10,11-Octahydro-1H-cyclohepta[4,5]thieno[2,3-b]quinolin-12-Amine] |  |  |  |  |  |  |  |  |  | 3.282 mg/mL | 10% | 80% | 10% | 11.5 | 90.4 ± 11.4% | 0% | 0.0 ± 0.0% | moderate inhibitory activity
